According to patent US20190365843A1, “Antimicrobial Activity of Bioactive Compounds and Their Derivatives” (priority 2018, published 2019):

Tests used:
S. aureus = assay: Agar diffusion growth inhibition zone, S. aureus; assay type: cell-based, Staphylococcus aureus; conditions: for zone of inhibition at 100 mg/mL / zone of inhibition at 150 mg/mL: Staphylococcus aureus, 6 mm = no activity
Procedure: (§1) Among the bacterial agents tested Gram positive and Gram negative bacterial groups represented by Staphylococcus aureus and Enterococcus species and pathogenic members of Enterobacteriaceae, Vibronaceae, Aeromonadaceae, Pseudomonadaceae were tested. Freshly sub-cultured bacterial strains were inoculated into peptone water and incubated for 4 hours at 37° C. and adjusted to a turbidity of 0.5 (Gram Negative Bacilli), 1 (Gram Positive Cocci) and 4 (Pus cells, GNB, & few Budding yeast cells) Mc Farland standards (10^8 CFU/ml) respectively.
(§2) The different bioactive compounds and their derivatives were dissolved and diluted with solvents (DMSO), number of subsequent dilutions was performed to obtain different concentrations of the bioactive compounds and their derivatives. (Working Concentrations).
(§3) Agar well diffusion method is widely used to evaluate the antimicrobial activity of plants or other synthetic products. The suspension (microbial inoculum) was used to inoculate into Muller Hinton Agar Petri plates by lawn culture. Well (diameter 6 mm) were punched in the agar by sterile borer and filled with 50 μl of dissolved extracts. Plates were incubated in incubator at 37° C. for 24 hours and measured the growth inhibition zone diameters in mm compared with that of control (DMSO) showing no growth.
(§4) The bioactive compounds were tested with desired concentrations in 6 mm filter paper discs (Whatman, no. 3) were impregnated with 10 μL of each of the different dilutions. The discs were allowed to remain at room temperature until complete diluent evaporation and kept under refrigeration until ready to be used. 10 μL of diluents used to products were used as control. Tests were performed by Agar disk-diffusion testing method, which is the official method used in many clinical microbiology laboratories for routine antimicrobial susceptibility testing.
(§5) Similar to the procedure used in Agar well diffusion method, the suspension (microbial inoculum) was used to inoculate into Muller Hinton Agar Petri plates by lawn culture. Then, filter paper discs (about 6 mm in diameter), containing the test compound at a desired concentration, were placed on the agar surface. The Petri dishes were incubated under suitable incubation conditions.
(§6) Bioactive compounds showing zone of inhibition beyond the size of 6 mm are considered to be having an anti-microbial activity.

Enterococcus sp. = assay: Agar diffusion growth inhibition zone, Enterococcus sp.; assay type: cell-based, Enterococcus species; conditions: 6 mm = no activity
Procedure: as §1, §2, §3, §4, §5, §6

Salmonella typhimurium = assay: Agar diffusion growth inhibition zone, Salmonella typhimurium; assay type: cell-based; conditions: Salmonella enterica, 6 mm = no activity
Procedure: as §1, §2, §3, §4, §5, §6

Proteus sp. = assay: Agar diffusion growth inhibition zone, Proteus sp.; assay type: cell-based, Proteus species; conditions: for zone of inhibition at 150 mg/mL: Proteus sp., 6 mm = no activity
Procedure: as §1, §2, §3, §4, §5, §6

E. coli ATCC 25922 = assay: Agar diffusion growth inhibition zone, E. coli ATCC 25922; assay type: cell-based; conditions: Escherichia coli, 6 mm = no activity; for zone of inhibition at 100 mg/mL: ATCC25922, 100 mg; for zone of inhibition at 150 mg/mL: ATCC25922, 150 mg
Procedure: as §1, §2, §3, §4, §5, §6

EAEC = assay: Agar diffusion growth inhibition zone, EAEC; assay type: cell-based, Enteroaggregative E. coli; conditions: for zone of inhibition at 100 mg/mL / zone of inhibition at 150 mg/mL: Escherichia coli, 6 mm = no activity
Procedure: as §1, §2, §3, §4, §5, §6

ETEC = assay: Agar diffusion growth inhibition zone, ETEC; assay type: cell-based, Enterotoxigenic E. coli; conditions: for inhibition of growth: ETEC; for zone of inhibition at 100000 µg/disc / zone of inhibition at 150000 µg/disc: Escherichia coli
Shigella sp. = assay: Agar diffusion growth inhibition zone, Shigella sp.; assay type: cell-based, Shigella species; conditions: Shigella
Procedure: (§7) Agar well diffusion method is widely used to evaluate the antimicrobial activity of plants or other synthetic products. The suspension (microbial inoculum) was used to inoculate into Muller Hinton Agar Petri plates by lawn culture. Well (diameter 6 mm) were punched in the agar by sterile borer and filled with 50 μl of dissolved extracts. Plates were incubated in incubator at 37° C. for 24 hours and measured the growth inhibition zone diameters in mm compared with that of control (DMSO) showing no growth. The antimicrobial agent diffuses in the agar medium and inhibits the growth of the microbial strain tested (Valgas et al., (2016) Methods for in vitro evaluating antimicrobial activity: A review. Journal of Pharmaceutical Analysis. 6(2):71-9).
(§8) Similar to the procedure used in Agar well diffusion method, the suspension (microbial inoculum) was used to inoculate into Muller Hinton Agar Petri plates by lawn culture. Then, filter paper discs (about 6 mm in diameter), containing the test compound at a desired concentration, were placed on the agar surface. The Petri dishes were incubated under suitable incubation conditions. Generally, antimicrobial agent diffuses into the agar and inhibits germination and growth of the test microorganism and then the diameters of inhibition growth zones are measured (Valgas et al., (2007) Screening methods to determine antibacterial activity of natural products. Brazilian Journal of Microbiology. 38:369-80; Balouiri M et al., (2016) Methods for in vitro evaluating antimicrobial activity: A review. Journal of Pharmaceutical Analysis. 6(2):71-9).

Pseudomonas sp. = assay: Agar diffusion growth inhibition zone, Pseudomonas sp.; assay type: cell-based, Pseudomonas species; conditions: Pseudomonas
Procedure: as §7, §8

Klebsiella sp. = assay: Agar diffusion growth inhibition zone, Klebsiella sp.; assay type: cell-based, Klebsiella species; conditions: 6 mm = no activity
Procedure: as §1, §2, §3, §4, §5, §6

Aeromonas sp. = assay: Agar diffusion growth inhibition zone, Aeromonas sp.; assay type: cell-based, Aeromonas species; conditions: Aeromonas sp., 6 mm = no activity
Procedure: as §1, §2, §3, §4, §5, §6

Pleisiomonas sp. = assay: Agar diffusion growth inhibition zone, Pleisiomonas sp.; assay type: cell-based, Pleisiomonas species; conditions: for zone of inhibition at 100 mg/mL / zone of inhibition at 150 mg/mL: Pleisiomonas sp., 6 mm = no activity
Procedure: as §1, §2, §3, §4, §5, §6

Candida abicans = assay: Agar diffusion growth inhibition zone, Candida abicans; assay type: cell-based, Candida albicans; conditions: 6 mm = no activity
Procedure: as §1, §2, §3, §4, §5, §6

Vibrio cholera = assay: Agar diffusion growth inhibition zone, Vibrio cholera; assay type: cell-based, Vibrio cholerae; conditions: Vibrio cholerae
Citrobacter sp. = assay: Agar diffusion growth inhibition zone, Citrobacter sp.; assay type: cell-based, Citrobacter species; conditions: 6 mm = no activity
Procedure: as §1, §2, §3, §4, §5, §6

Row | SMILES | zone of inhibition at 100 mg/mL (S. aureus) | zone of inhibition at 150 mg/mL (S. aureus) | zone of inhibition at 100 mg/mL (Enterococcus sp.) | zone of inhibition at 150 mg/mL (Enterococcus sp.) | zone of inhibition at 100 mg/mL (Salmonella typhimurium) | zone of inhibition at 150 mg/mL (Salmonella typhimurium) | zone of inhibition at 150 mg/mL (Proteus sp.) | zone of inhibition at 100 mg/mL (E. coli ATCC 25922) | zone of inhibition at 150 mg/mL (E. coli ATCC 25922) | zone of inhibition at 100 mg/mL (EAEC) | zone of inhibition at 150 mg/mL (EAEC) | inhibition of growth (ETEC) | zone of inhibition at 100000 µg/disc (ETEC) | zone of inhibition at 150000 µg/disc (ETEC) | zone of inhibition at 100000 µg/disc (Shigella sp.) | zone of inhibition at 150000 µg/disc (Shigella sp.) | zone of inhibition at 100000 µg/disc (Pseudomonas sp.) | zone of inhibition at 150000 µg/disc (Pseudomonas sp.) | zone of inhibition at 100 mg/mL (Klebsiella sp.) | zone of inhibition at 150 mg/mL (Klebsiella sp.) | other results
1 | COc1cc(/C=C/C(=O)COC(=O)/C=C/c2ccc(OC(C)=O)c(OC)c2)ccc1OC(C)=O [compound 6, O,O′- Diacetylcalebin-A] | 6 mm | 6 mm | 6 mm | 6 mm | 6 mm | 6 mm | 6 mm | 6 mm | 6 mm | 7 mm | 7 mm | significantly inhibited the growth | 8 mm | 8 mm | 6 mm | 6 mm | 6 mm | 6 mm | 6 mm | 6 mm | inhibition of growth (EAEC): inhibited; zone of inhibition at 100 mg/mL (Aeromonas sp.): 6 mm; zone of inhibition at 150 mg/mL (Aeromonas sp.): 6 mm; zone of inhibition at 100 mg/mL (Pleisiomonas sp.): 6 mm; zone of inhibition at 150 mg/mL (Pleisiomonas sp.): 6 mm; zone of inhibition at 100 mg/mL (Candida abicans): 6 mm; zone of inhibition at 150 mg/mL (Candida abicans): 6 mm; zone of inhibition at 100000 µg/disc (Vibrio cholera): 6 mm; zone of inhibition at 150000 µg/disc (Vibrio cholera): 6 mm; zone of inhibition at 100 mg/mL (Citrobacter sp.): 6 mm; zone of inhibition at 150 mg/mL (Citrobacter sp.): 6 mm
2 | COc1cc(/C=C/C(=O)CC(=O)/C=C/c2ccc(O)c(OC)c2)ccc1O [compound 1, Curcumin] | 10 mm | 10 mm | 6 mm | 6 mm | 6 mm | 6 mm | 11 mm | 6 mm | 6 mm | 6 mm | 6 mm | significantly inhibited the growth | 10 mm | 10 mm | 6 mm | 6 mm | 6 mm | 6 mm | 6 mm | 6 mm | zone of inhibition (S. aureus; concentration not given): 10 mm; zone of inhibition (Proteus sp.; Proteus species, at both concentrations of 100 mg and 150 mg): 11 mm; zone of inhibition at 100 mg/mL (Aeromonas sp.): 6 mm; zone of inhibition at 150 mg/mL (Aeromonas sp.): 6 mm; zone of inhibition at 100 mg/mL (Pleisiomonas sp.): 10 mm; zone of inhibition at 150 mg/mL (Pleisiomonas sp.): 10 mm; inhibition of growth (Pleisiomonas sp.; Plesiomonas species): inhibited; zone of inhibition at 100 mg/mL (Candida abicans): 6 mm; zone of inhibition at 150 mg/mL (Candida abicans): 6 mm; inhibition of growth (Vibrio cholera): inhibited the growth; zone of inhibition at 100000 µg/disc (Vibrio cholera): 10 mm; zone of inhibition at 150000 µg/disc (Vibrio cholera): 6 mm; zone of inhibition at 100 mg/mL (Citrobacter sp.): 6 mm; zone of inhibition at 150 mg/mL (Citrobacter sp.): 6 mm
